Format in all cases: biochemical
Experiment [1] addresses T1, Recombinant human Tyro3 (455-end) (Homo sapiens, UniProt Q06418).
T1 construct: GST (N); made in house; host or cells: Sf9 insect cells (baculovirus)
T1 sequence (Q06418 455-890 limits assumed): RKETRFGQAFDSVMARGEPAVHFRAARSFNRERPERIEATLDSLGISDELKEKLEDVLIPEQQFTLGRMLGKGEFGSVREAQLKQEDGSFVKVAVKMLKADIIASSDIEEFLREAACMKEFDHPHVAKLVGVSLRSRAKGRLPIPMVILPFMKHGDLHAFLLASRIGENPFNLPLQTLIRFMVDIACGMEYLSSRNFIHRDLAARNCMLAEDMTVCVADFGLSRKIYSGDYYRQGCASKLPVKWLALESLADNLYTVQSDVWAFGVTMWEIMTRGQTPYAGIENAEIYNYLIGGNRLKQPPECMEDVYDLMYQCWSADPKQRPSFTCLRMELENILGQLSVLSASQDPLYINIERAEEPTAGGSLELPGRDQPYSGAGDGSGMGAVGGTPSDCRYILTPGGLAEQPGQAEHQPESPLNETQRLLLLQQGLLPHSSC
The experiment in a line: Kinase enzymatic activity assay ([33P]-ATP phosphate transfer), Tyro3. The note with it: inhibitory activity on Tyro3; class symbols. How it is done: (§1) Preparation of Active Recombinant Kinase Proteins:
(§2) Recombinant human Tyro3 (455-end, the gene accession number NM_006293), human Axl (473-end, the gene accession number NM_021913) and human Mer (578-872, the gene accession number NM_006343) were independently expressed by baculovirus in Sf9 insect cells using an N-terminal GST tag. The recombinant proteins were stored at −70° C. in a medium containing 50 mM Tris-HCl, pH 7.5, 150 mM NaCl, 10 mM glutathione, 0.1 mM EDTA, 0.25 mM DTT, 0.1 mM PMSF and 25% glycerol. The recombinant proteins were aliquoted into smaller quantities after centrifugation to avoid repeated handling and multiple freeze/thaw cycles for the most favorable performance.
(§3) Preparation of Assay Reagents:
(§4) Kinase Assay Buffer: This buffer solution consisted of the following components: 25 mM MOPS, pH 7.2, 12.5 mM β-glycerol-phosphate, 25 mM MgCl2, 5 mM EGTA, 2 mM EDTA and DTT 0.25 mM which was added prior to use.
(§5) Kinase Dilution Buffer: Kinase Assay Buffer was diluted at a 1:4 ratio (5× dilution) with distilled water.
(§6) [^33P]-ATP assay cocktail: In a designated radioactive working area, a 250 μM [^33P]-ATP assay cocktail was prepared by the addition of the following components: 150 μL of 10 mM ATP stock solution, 100 μL [^33P]-ATP (1 mci/100 μL), 5.75 mL of kinase assay buffer. This solution was stored in 1 mL aliquots at −20 OC.
(§7) ATP stock solution (10 mM): The ATP stock solution was prepared by dissolving 55 mg of ATP in 10 mL of kinase assay buffer. It was stored in 200 μL aliquots at −20° C.
(§8) Active Kinase Stock Solution: The active recombinant kinase protein (0.1 μg/μL) was diluted with Kinase Dilution Buffer and the activity was assayed using a serial dilution method. The specific activity is expressed in nmoL/min/mg.
(§9) Substrates: poly(4:1 glu:tyr) is the substrate used for each kinase Tyro3, Axl and Mer: The peptide substrate was dissolved in water to give the final concentration of 1 mg/mL.
(§10) Test compound solution: Test compound was dissolved in DMSO to obtain a 10 mM solution. The assay solution was prepared by adding 5 μL of this solution to […] of 10% DMSO/water to obtain the final concentration of 50 μM.
(§11) The enzymatic activity of all three kinases was determined as follows. Using a 96-well plate, the wells were divided into three categories: Blank wells, […] and Test wells. In Test wells, 5 μL of the test compound solution and 5 μL of the substrate solution were added. In Control wells, 5 μL of 10% DMSO/water and 5 μL of the substrate solution were added. In Blank wells, 10 μL of 10% DMSO/water was added. To each well was added 10 μL of Active Kinase Stock Solution to make up the volume in each well to 20 μL. All test samples, controls and blanks were run in duplicate. The reaction was initiated by the addition of 5 μL of [^33P]-ATP assay cocktail, bringing the final volume up to 25 μL in every well. The mixture was incubated at room temperature for 30 minutes. The reaction was terminated by transferring 10 μL of the reaction mixture into a Millipore MultiScreen filter plate (cat. number MSPHN6B50). The filter plate was washed in a 1% phosphoric acid solution with constant gentle shaking for 15 minutes and this step was repeated once. After the plate was dried in air, scintillation fluid was added to each well and the radioactivity in each well in CPM was counted by a Microbeta TriLux. The corrected CPM in each test well was determined by subtracting the average value of Blank well values. Percentage of inhibition of the kinase enzymatic activity by the test compound was determined using the following formula: […]
(§12) The IC50 values were determined in a similar way following a serial dilution of the test compound. The percentage of inhibition at each concentration was calculated following the above formula. The IC50 was estimated from the curve of % Inhibition against Concentration in log unit using Prism 5, version 5.01.

Another experiment addresses T2, human Axl (473-end) (Homo sapiens, UniProt P30530).
T2 construct: GST (N); made in house; host or cells: Sf9 insect cells (baculovirus)
T2 sequence (P30530 473-894 limits assumed): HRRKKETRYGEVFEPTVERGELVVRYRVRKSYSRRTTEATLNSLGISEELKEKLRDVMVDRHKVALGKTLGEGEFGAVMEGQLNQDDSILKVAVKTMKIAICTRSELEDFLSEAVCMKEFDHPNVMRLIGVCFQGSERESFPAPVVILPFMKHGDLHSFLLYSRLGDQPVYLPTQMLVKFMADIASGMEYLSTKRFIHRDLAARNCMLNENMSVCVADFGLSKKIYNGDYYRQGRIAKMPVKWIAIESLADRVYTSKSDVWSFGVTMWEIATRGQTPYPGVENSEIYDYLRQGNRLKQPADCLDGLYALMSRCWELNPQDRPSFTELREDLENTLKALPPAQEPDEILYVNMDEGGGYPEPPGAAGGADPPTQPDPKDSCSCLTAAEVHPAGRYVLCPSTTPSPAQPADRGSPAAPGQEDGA
Kind of experiment: Kinase enzymatic activity assay ([33P]-ATP phosphate transfer), Axl. The note with it: inhibitory activity on Axl; class symbols. Here is the method: as §1, §2, §3, §4, §5, §6, §7, §8, §9, §10, §11, §12

The next experiment deals with T3, human Mer (578-872) (Homo sapiens, UniProt Q12866).
T3 construct: GST (N); made in house; host or cells: Sf9 insect cells (baculovirus)
T3 sequence (Q12866 578-872): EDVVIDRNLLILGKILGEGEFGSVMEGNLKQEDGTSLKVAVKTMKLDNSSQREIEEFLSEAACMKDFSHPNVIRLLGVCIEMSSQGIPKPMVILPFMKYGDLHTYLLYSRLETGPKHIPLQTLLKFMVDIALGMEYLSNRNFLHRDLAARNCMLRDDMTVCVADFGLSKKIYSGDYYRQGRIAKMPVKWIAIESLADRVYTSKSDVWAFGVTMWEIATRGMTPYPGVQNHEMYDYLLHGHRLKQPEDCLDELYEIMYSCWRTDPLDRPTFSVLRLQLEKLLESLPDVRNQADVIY
The experiment in a line: Kinase enzymatic activity assay ([33P]-ATP phosphate transfer), Mer. The note with it: inhibitory activity on Mer; class symbols. Here is the method:
as §1, §2, §3, §4, §5, §6, §7, §8, §9, §10, §11, §12

Some results are limits rather than exact numbers.

For orientation: IC50 means the concentration that inhibits the measured activity by half.

Turning to `CC(=O)N1CCC(n2cc(-c3cnc(N)c(-c4ncc(-c5ccc(Cl)cc5)o4)c3)cn2)CC1` [1-(4-(4-(6-amino-5-(5-(4-chlorophenyl)oxazol-2-yl)pyridin-3-yl)-1H-pyrazol-1-yl)piperidin-1-yl)ethanone], the IC50 (in experiment [1]; at human Axl (473-end); on human Mer (578-872)) was greater than 10000 nM in each case.

Take `CCCCCCCCCCCCN1CCC(n2cc(-c3cnc(N)c(-c4nc(-c5c(Cl)cccc5Cl)no4)c3)cn2)CC1` [3-(3-(2,6-dichlorophenyl)-1,2,4-oxadiazol-5-yl)-5-(1-(1-dodecylpiperidin-4-yl)-1H-pyrazol-4-yl)pyridin-2-amine]: the IC50 in experiment [1] is less than 500 nM; against human Axl (473-end), 1000 to 10000 nM; against human Mer (578-872), less than 500 nM.

As to `CCN1CCC(n2cc(-c3cnc(N)c(-c4nc(-c5c(Cl)cccc5Cl)no4)c3)cn2)CC1` [3-(3-(2,6-dichlorophenyl)-1,2,4-oxadiazol-5-yl)-5-(1-(1-ethylpiperidin-4-yl)-1H-pyrazol-4-yl)pyridin-2-amine], the IC50 (in experiment [1]; against human Axl (473-end); at human Mer (578-872)) was less than 500 nM throughout.

As for `CN1CCC(n2cc(-c3cnc(N)c(-c4nc(-c5c(Cl)cccc5Cl)no4)c3)cn2)CC1` [3-(3-(2,6-dichlorophenyl)-1,2,4-oxadiazol-5-yl)-5-(1-(1-methylpiperidin-4-yl)-1H-pyrazol-4-yl)pyridin-2-amine], the IC50 (in experiment [1]; against human Axl (473-end); on human Mer (578-872)) was less than 500 nM throughout.

Regarding `Nc1ncc(-c2cnn(C3CCNCC3)c2)cc1-c1nc(-c2c(Cl)cccc2Cl)no1` [3-(3-(2,6-dichlorophenyl)-1,2,4-oxadiazol-5-yl)-5-(1-(piperidin-4-yl)-1H-pyrazol-4-yl)pyridin-2-amine], the IC50 (in experiment [1]; against human Axl (473-end); against human Mer (578-872)) was less than 500 nM throughout.

With `Nc1ncc(-c2cnn(C3CCOCC3)c2)cc1-c1nc(-c2c(Cl)cccc2Cl)no1` [3-(3-(2,6-dichlorophenyl)-1,2,4-oxadiazol-5-yl)-5-(1-(tetrahydro-2H-pyran-4-yl)-1H-pyrazol-4-yl)pyridin-2-amine], the values for the IC50 (in experiment [1]; on human Axl (473-end); at human Mer (578-872)) were less than 500 nM, 1000 to 10000 nM and 1000 to 10000 nM, respectively.

With `Nc1ncc(-c2cnn(C3CCNCC3)c2)cc1-c1nc(-c2ccccc2)no1` [3-(3-phenyl-1,2,4-oxadiazol-5-yl)-5-(1-(piperidin-4-yl)-1H-pyrazol-4-yl)pyridin-2-amine], the IC50 (in experiment [1]; on human Axl (473-end); against human Mer (578-872)) was less than 500 nM in each case.

With `Nc1ncc(-c2cnn(C3CCOCC3)c2)cc1-c1nc(-c2ccccc2)no1` [3-(3-phenyl-1,2,4-oxadiazol-5-yl)-5-(1-(tetrahydro-2H-pyran-4-yl)-1H-pyrazol-4-yl)pyridin-2-amine], the IC50 (in experiment [1]; against human Axl (473-end); against human Mer (578-872)) was greater than 10000 nM in each case.

Regarding `Nc1ncc(-c2cn[nH]c2)cc1-c1nc(-c2ccccc2)no1` [3-(3-phenyl-1,2,4-oxadiazol-5-yl)-5-(1H-pyrazol-4-yl)pyridin-2-amine], the IC50 in experiment [1] lay within 1000 to 10000 nM; against human Axl (473-end), 500 to 1000 nM; at human Mer (578-872) it was 1000 to 10000 nM.

For the compound `Nc1ncc(-c2cnn(C3CCNCC3)c2)cc1-c1noc(-c2cc(Cl)ccc2Cl)n1` [3-(5-(2,5-dichlorophenyl)-1,2,4-oxadiazol-3-yl)-5-(1-(piperidin-4-yl)-1H-pyrazol-4-yl)pyridin-2-amine], the results for the IC50 (in experiment [1]; against human Axl (473-end); against human Mer (578-872)) were less than 500 nM, less than 500 nM and 500 to 1000 nM, respectively.

Turning to `Nc1ncc(-c2cn[nH]c2)cc1-c1nnc(-c2cc(F)ccc2F)o1` [3-(5-(2,5-difluorophenyl)-1,3,4-oxadiazol-2-yl)-5-(1H-pyrazol-4-yl)pyridin-2-amine], the IC50 was less than 500 nM in experiment [1], less than 500 nM against human Axl (473-end) and 1000 to 10000 nM at human Mer (578-872).

For `Nc1ncc(-c2cnn(C3CCNCC3)c2)cc1-c1nnc(-c2c(Cl)ccc(F)c2Cl)o1` [3-(5-(2,6-dichloro-3-fluorophenyl)-1,3,4-oxadiazol-2-yl)-5-(1-(piperidin-4-yl)-1H-pyrazol-4-yl)pyridin-2-amine], the IC50 (in experiment [1]; against human Axl (473-end); against human Mer (578-872)) was less than 500 nM throughout.

In the case of `CCCCCCCCCCCCN1CCC(n2cc(-c3cnc(N)c(-c4nnc(-c5c(Cl)cccc5Cl)o4)c3)cn2)CC1` [3-(5-(2,6-dichlorophenyl)-1,3,4-oxadiazol-2-yl)-5-(1-(1-dodecylpiperidin-4-yl)-1H-pyrazol-4-yl)pyridin-2-amine], the IC50 in experiment [1] lay in the range of 500 to 1000 nM; against human Axl (473-end), 1000 to 10000 nM; against human Mer (578-872), 1000 to 10000 nM.

On to `CCN1CCC(n2cc(-c3cnc(N)c(-c4nnc(-c5c(Cl)cccc5Cl)o4)c3)cn2)CC1` [3-(5-(2,6-dichlorophenyl)-1,3,4-oxadiazol-2-yl)-5-(1-(1-ethylpiperidin-4-yl)-1H-pyrazol-4-yl)pyridin-2-amine], for which the IC50 (in experiment [1]; against human Axl (473-end); on human Mer (578-872)) was less than 500 nM each time.

As to `CN1CCC(n2cc(-c3cnc(N)c(-c4nnc(-c5c(Cl)cccc5Cl)o4)c3)cn2)CC1` [3-(5-(2,6-dichlorophenyl)-1,3,4-oxadiazol-2-yl)-5-(1-(1-methylpiperidin-4-yl)-1H-pyrazol-4-yl)pyridin-2-amine], the IC50 (in experiment [1]; against human Axl (473-end); on human Mer (578-872)) was less than 500 nM throughout.

The values above are taken from patent US11034685B2, “Aminopyridine derivatives as TAM family kinase inhibitors” (SignalChem Lifesciences Corporation, priority 2013, dated 2021).
